Experimental data from patent publication US6841566B2, “Viral polymerase inhibitors” (Boehringer Ingelheim, Ltd., priority 2001, dated 2005).

System: Huh7 cells that stably maintain a subgenomic HCV replicon (S22.3 cell-line)
Experiment: Cell based HCV RNA replication assay (S22.3 replicon cells, real-time RT-PCR)
Settings: Hepatitis C virus, Huh-7, 72 hours
Experimental: Huh7 cells that stably maintain a subgenomic HCV replicon were established as previously described (Lohman et al., 1999. Science 285: 110-113) and designated as the S22.3 cell-line. S22.3 cells were maintained in Dulbecco's Modified […] Medium (DMEM) supplemented with 10% FBS and 0.5 mg/mL neomycin (Standard Medium). During the assay, DMEM medium supplemented with 10% FBS, containing 0.5% DMSO and lacking neomycin was used (Assay Medium). 16 hours prior to compound addition, S22.3 cells are trypsinized and diluted to 100 000 cells/ml in Standard Medium. 100μL (10 000 cells) are distributed into each well of a 96-well plate. The plate was then incubated at 37° C. with 5% CO2 until the next day.
10 μL of test compound (in 100% DMSO) was added to 2 ml of Assay Medium for a final DMSO concentration of 0.5% and the solution was sonicated for 15 min and filtered through a […] Millipore Filter Unit. 900 μl was transferred into row A of a Polypropylene Deep-Well Titer Plate. Rows B to H, contain 400 μL aliquots of Assay Medium (containing 0.5% DMSO), and were used to prepare serial dilutions (1/2) by transferring 400 μl from row to row (no compound was included in row H).
Cell culture medium was aspirated from the 96-well plate containing the S22.3 cells. 175 μL of assay medium with the appropriate dilution of test compound was transferred from each well of the compound plate to the corresponding well of the cell culture plate (row H was used as the “No inhibition control”). The cell culture plate was incubated at 37° C. with 5% CO2 for 72 hours.
Following the 72 hour incubation period, the total cellular RNA was extracted from the S22.3 cells of the 96-well plate using the RNeasy 96 kit (Qiagen®, RNeasy Handbook. 1999.). Briefly, assay medium was completely removed from cells and 100 μL of RLT buffer (Qiagen®) containing 143 mM β-mercaptoethanol was added to each well of the 96-well cell-culture plate. The microplate was gently shaken for 20 sec. 100 μL of 70% ethanol was then added to each microplate well, and mixed by pipetting. The lysate was removed and applied to the wells of a RNeasy 96 (Qiagen®) plate that was placed on top of a Qiagen® Square-Well Block. The RNeasy 96 plate was sealed with tape and the Square-Well Block with the RNeasy 96 plate was loaded into the holder and placed in a rotor bucket of a 4K15C centrifuge. The sample was centrifuged at 6000 rpm (˜5600×g) for 4 min at room temperature. The tape was removed from the plate and 0.8 ml of Buffer RW1 (Qiagen® RNeasy 96 kit) was added to each well of the RNeasy 96 plate. The RNeasy 96 plate was sealed with a new piece of tape and centrifuged at 6000 rpm for 4 min at room temperature. The RNeasy 96 plate was placed on top of another clean Square-Well Block, the tape removed and 0.8 ml of Buffer RPE (Qiagen® RNeasy 96 kit) was added to each well of the RNeasy 96 plate. The RNeasy 96 plate was sealed with a new piece of tape and centrifuged at 6000 rpm for 4 min at room temperature. The tape was removed and another 0.8 ml of Buffer RPE (Qiagen® RNeasy 96 kit) was added to each well of the RNeasy 96 plate. The RNeasy 96 plate was sealed with a new piece of tape and centrifuged at 6000 rpm for 10 min at room temperature. Tape was removed, the RNeasy 96 plate was placed on top of a rack containing 1.2-mL collection microtubes. The RNA was eluted by adding 50 μL of RNase-free water to each well, sealing plate with a new piece of tape and incubated for 1 min at room temperature. The plate was then centrifuged at 6000 rpm for 4 min at room temperature. The elution step was repeated with a second volume of 50 μl RNase-free water. The microtubes with total cellular RNA are stored at −70° C.
RNA was quantified on the STORM® system (Molecular Dynamics®) using the RiboGreen® RNA Quantification Kit (Molecular Probes®). Briefly, the RiboGreen reagent was diluted 200-fold in TE (10 mM Tris-HCl pH=7.5, 1 mM EDTA). Generally, 50 μL of reagent was diluted in 10 mL TE. […]

Question: How did the EC50 turn out when `O=C(O)/C=C/c1ccc(NC(=O)C2(NC(=O)c3ccc4c(c3)nc(-c3ccccn3)n4C3CCCCC3)CCCC2)cc1` [compound 2005] was run?
Answer: ≤ 5 µM

Question: `O=C(O)/C=C/c1ccc(NC(=O)C2(NC(=O)c3ccc4c(c3)nc(-c3ccccc3)n4C3CCCCC3)CCCC2)cc1` [compound 2006] was tested. Which EC50 did it give?
Answer: ≤ 5 µM

Question: How did the EC50 turn out when `O=C(O)/C=C/c1ccc(NC(=O)C2(NC(=O)c3ccc4c(c3)nc(-c3ccc[nH]3)n4C3CCCCC3)CCCC2)cc1` [compound 2007] was run?
Answer: ≤ 5 µM

Question: How did the EC50 turn out when `O=C(O)/C=C/c1ccc(NC(=O)C2(NC(=O)c3ccc4c(c3)nc(-c3ccccn3)n4C3CCCC3)CCCC2)cc1` [compound 2012] was run?
Answer: 5 to 50 µM

Question: Which EC50 does the source give for `O=C(O)/C=C/c1ccc(NC(=O)C2(NC(=O)c3ccc4c(c3)nc(-c3ccoc3)n4C3CCCC3)CCCC2)cc1` [compound 2013] here?
Answer: 5 to 50 µM

Question: With `CC1CCCCC1n1c(-c2ccoc2)nc2cc(C(=O)NC3(C(=O)Nc4ccc(C=CC(=O)O)cc4)CCCC3)ccc21` (stereo not drawn) [compound 2045] as the compound, how does the EC50 read?
Answer: ≤ 5 µM

Question: Which EC50 does the source give for `Cn1cccc1-c1nc2cc(C(=O)NC3(C(=O)Nc4ccc(/C=C/C(=O)O)cc4)CCCC3)ccc2n1C1CCCCC1` [compound 2048] here?
Answer: ≤ 5 µM

Question: How did the EC50 turn out when `O=C(O)/C=C/c1ccc(NC(=O)C2(NC(=O)c3ccc4c(c3)nc(-c3ccco3)n4C3CCCCC3)CCCC2)cc1` [compound 2049] was run?
Answer: ≤ 5 µM

Question: For `O=C(O)/C=C/c1ccc(NC(=O)C2(NC(=O)c3ccc4c(c3)nc(-c3cccs3)n4C3CCCCC3)CCCC2)cc1` [compound 2050], which EC50 is on record?
Answer: ≤ 5 µM
